According to the NIST ThermoML archive (doi:10.1021/je300776s):
± gives the expanded uncertainty stated by the source.

Settings: for mass density: Vibrating tube method; for vapor or sublimation pressure: Closed cell (Static) method; for viscosity: Capillary tube (Ostwald / Ubbelohde) method; for surface tension liquid-gas: Capillary rise

Compound: FC(F)(F)/C=C/Cl [(E)-1-chloro-3,3,3-trifluoroprop-1-ene]
- mass density (243.34 K, Liquid): 1384.7 ± 2.8 kg/m3
- mass density (243.7 K, Liquid): 1383.98 ± 2.8 kg/m3
- mass density (248.07 K, Liquid): 1371.38 ± 2.8 kg/m3
- mass density (251.12 K, Liquid): 1367.4 ± 2.8 kg/m3
- mass density (253.56 K, Liquid): 1362.51 ± 2.8 kg/m3
- mass density (255.66 K, Liquid): 1360.3 ± 2.8 kg/m3
- vapor or sublimation pressure (263.09 K, Liquid): 29.85 ± 0.6 kPa
- mass density (263.36 K, Liquid): 1341.34 ± 2.7 kg/m3
- viscosity (270.24 K, 100 kPa, Liquid): 0.705 ± 0.018 mPa·s
- mass density (271.16 K, Liquid): 1323.65 ± 2.7 kg/m3
- vapor or sublimation pressure (272.95 K, Liquid): 44.51 ± 0.9 kPa
- vapor or sublimation pressure (273.1 K, Liquid): 47.57 ± 0.96 kPa
- surface tension liquid-gas (273.15 K): 16.48 ± 0.34 mN/m
- mass density (273.17 K, Liquid): 1319.65 ± 2.7 kg/m3
- vapor or sublimation pressure (282.95 K, Liquid): 71.41 ± 1.4 kPa
- vapor or sublimation pressure (283.08 K, Liquid): 72.74 ± 1.5 kPa
- mass density (283.26 K, Liquid): 1296.48 ± 2.6 kg/m3
- mass density (290.16 K, Liquid): 1280.22 ± 2.6 kg/m3
- mass density (291.98 K, Liquid): 1276.01 ± 2.6 kg/m3
- viscosity (292.03 K, 150 kPa, Liquid): 0.506 ± 0.013 mPa·s
- vapor or sublimation pressure (293.05 K, Liquid): 107.99 ± 2.2 kPa
- vapor or sublimation pressure (293.08 K, Liquid): 106.52 ± 2.1 kPa
- mass density (293.21 K, Liquid): 1273.37 ± 2.6 kg/m3
- surface tension liquid-gas (298.15 K): 12.68 ± 0.27 mN/m
- vapor or sublimation pressure (302.85 K, Liquid): 148.21 ± 3 kPa
- vapor or sublimation pressure (303.01 K, Liquid): 152.1 ± 3.1 kPa
- vapor or sublimation pressure (312.25 K, Liquid): 203.33 ± 4.1 kPa
- vapor or sublimation pressure (312.93 K, Liquid): 210.08 ± 4.2 kPa
- viscosity (314.25 K, 300 kPa, Liquid): 0.3851 ± 0.0098 mPa·s
- vapor or sublimation pressure (321.85 K, Liquid): 279.37 ± 5.6 kPa
- vapor or sublimation pressure (323 K, Liquid): 282.13 ± 5.7 kPa
- surface tension liquid-gas (323.15 K): 9.01 ± 0.19 mN/m
- vapor or sublimation pressure (332.93 K, Liquid): 382.66 ± 7.7 kPa
- viscosity (336.37 K, 500 kPa, Liquid): 0.294 ± 0.008 mPa·s
- vapor or sublimation pressure (342.92 K, Liquid): 502.28 ± 10 kPa
- vapor or sublimation pressure (352.84 K, Liquid): 641.35 ± 13 kPa
- viscosity (353.52 K, 800 kPa, Liquid): 0.2369 ± 0.0061 mPa·s
- viscosity (379.56 K, 1350 kPa, Liquid): 0.1763 ± 0.0046 mPa·s
- Critical temperature (Liquid, Visual observation in an unstirred cell): 438.75 ± 0.17 K
